In patent US20200276154A1, “COMPOSITION FOR PROMOTING ADIPOCYTE DIFFERENTIATION OR ADIPONECTIN, COMPRISING TRIMETHOXY PHENYL COMPOUND” (AMOREPACIFIC CORPORATION, priority 2017, published 2020):

What was measured:
Type in all cases: cell-based, human
[1] = tested on: adiponectin (Adipoq) mRNA in hSCFs; assay: mRNA expression of adiponectin by real-time quantitative PCR (RT-qPCR); details: compared with positive control groups KA 400 μM, CA 60 μM, GC 30 μM
Protocol: Total RNA was extracted by treating the hSCFs cultured in Example 1 with a composition containing PAC-2 at various concentrations (μM) or KA (400 μM), CA (60 μM) and GC (30 μM) as positive control groups using a TRIzol reagent (Life Technologies, Carlsbad, Calif., USA) according to the manufacturer's instructions. 1 μg of total RNA was utilized to synthesize complementary DNAs (cDNAs) using the RevertAid first strand cDNA synthesis kit (Thermo Scientific, Pittsburgh, Pa., USA). About 1 μg of the cDNA sample and each TaqMan® probe (Life Technologies, Carlsbad, Calif., USA) were diluted in a reaction mixture of the Quantitect probe PCR kit (QIAGEN, Valencia, Calif., USA) and PCR was conducted using the 7500 fast real-time PCR system (Life Technologies, Carlsbad, Calif., USA). The TaqMan® probe was glyceraldehyde-3-phosphate dehydrogenase (GAPDH; Part #4352339E). All data were acquired from three independent experiments and are presented as fold changes relative to the GAPDH control group.

hSCFs = assay: Quantitative analysis of adipocyte differentiation by Oil Red O (ORO) staining; details: 14 days differentiation, compared with KA 400 μM, CA 60 μM, GC 30 μM
Protocol: Human subcutaneous fat cells (hereinafter, hSCFs) and a subcutaneous preadipocyte differentiation medium were purchased from ZenBio Inc. (NC, USA). The cells were cultured in a humidified 5% CO2 incubator for 7 days.
To induce differentiation, the hSCFs were cultured further for 14 days in a Dulbecco's modified Eagle's medium (DMEM; Lonza, MD, USA) supplemented with 10% fetal bovine serum (FBS, PAA, Pasching, Austria), 10 μg/mL insulin (Sigma-Aldrich, MO, USA), 0.5 mM 3-isobutyl-1-methylxanthine (IBMX; Sigma-Aldrich, St. Louis, Mo., USA), 1 μM dexamethasone (DEX, Sigma-Aldrich, St. Louis, Mo., USA) and 1 μM troglitazone (Sigma-Aldrich, St. Louis, Mo., USA) while replacing the medium every other day.
The hSCFs cultured in Example 1 were differentiated for a total of 14 days by treating with a composition containing PAC-2 at various concentrations (μM) or with KA (400 μM), CA (60 μM) or GC (30 μM) as positive control groups. Then, after washing twice with cold PBS (phosphate-buffered saline), the cells were fixed in 3.7% formaldehyde (Sigma-Aldrich, St. Louis, Mo., USA) for 1 hour. The fixed hSCFs were washed with 60% propylene glycol (Sigma-Aldrich, St. Louis, Mo., USA) in PBS and were treated with Oil Red 0 (0.3% Oil Red 0 in 60% propylene glycol; Sigma-Aldrich, St. Louis, Mo., USA) for 30 minutes. The cells were washed with 85% propylene glycol thrice and then rinsed with tap water. […]

[2] = tested on: secreted adiponectin from hSCFs; assay: Quantitative analysis of adiponectin production by ELISA; details: culture medium, compared with positive control groups KA 400 μM, CA 60 μM, GC 30 μM
Protocol: The hSCFs cultured in Example 1 were treated with KA (400 μM), CA (60 μM) or GC (30 μM) as positive control groups or a composition containing PAC-2 at various concentrations. The culture medium was collected and centrifuged at 13,000 rpm for 15 minutes to remove any debris. The secreted adiponectin was measured using an adiponectin ELISA kit (Enzo Life Sciences, Farmingdale, N.Y., USA) according to the manufacturer's instructions.

COc1cc(/C=C/C(=O)OCc2cc(=O)c(O)co2)cc(OC)c1OC [PAC-2, 3-(3,4,5-trimethoxyphenyl)-acrylic acid 5-hydroxy-4-oxo-4H-pyran-2-ylmethyl ester]
mRNA expression level of adiponectin ([1]; 25 μM): ≥ 3 times | mRNA expression level of adiponectin ([1]; 50 μM): ≥ 5 times | number of Oil Red O stained cells (hSCFs; 25 μM): remarkably increased number of stained cells | number of Oil Red O stained cells (hSCFs; 50 μM): remarkably increased number of stained cells | amount of the secreted adiponectin ([2]; 25 μM): ≥ 3 times | amount of the secreted adiponectin ([2]; 50 μM): ≥ 7 times
